Data as given in patent US10611732B2, “HIV replication inhibiting pyrimidines” (Janssen Pharmaceutica NV, priority 2001, dated 2020).
Like-named read-outs stand apart in the source and are kept apart here.

Assays:
HIV = assay: microbe, parasite or virus in culture; details: for pIC50 (−log IC50): HIV-infected MT-4 cells; for pSI (pCC50-pIC50): selectivity index, ratio of CC50 to IC50, as log difference
Protocol: (§1) A rapid, sensitive and automated assay procedure was used for the in vitro evaluation of anti-HIV agents. An […] T4-cell line, MT-4, which was previously shown (Koyanagi et al., Int. J Cancer, 36, 445-451, 1985) to be highly susceptible to and permissive for HIV infection, served as the target cell line. Inhibition of the HIV-induced cytopathic effect was used as the end point. The viability of both HIV- and mock-infected cells was assessed spectrophotometrically via the in situ reduction of 3-(4,5-dimethylthiazol-2-yl)-2,5-diphenyltetrazolium bromide (MTT). The 50% cytotoxic concentration (CC50 in M) was defined as the concentration of compound that reduced the absorbance of the mock-infected control sample by 50%. The percent protection achieved by the compound in HIV-infected cells was calculated by the following formula:
(§2) [formula] whereby (ODT)HIV is the optical density measured with a given concentration of the test compound in HIV-infected cells; (ODC)HIV is the optical density measured for the control untreated HIV-infected cells; (ODC)MOCK is the optical density measured for the control untreated mock-infected cells; all optical density values were determined at 540 nm. The dose achieving 50% protection according to the above formula was defined as the 50% inhibitory concentration (IC50 in M). The ratio of CC50 to IC50 was defined as the selectivity index (SI).
(§3) Table 6 lists the pIC50 (−log IC50), pCC50 (−log CC50) and pSI (pCC50-pIC50) values for the compounds of formula (I).

mock-infected MT-4 cells = assay: cytotoxicity in mock-infected MT-4 cells (MTT)
Protocol: as §1, §2, §3

[1] = dose achieving 50% protection, MTT, OD 540 nm

| Compound | pIC50 (−log IC50) (HIV; [1]) | pSI (pCC50-pIC50) (HIV) | pCC50 (−log CC50) (mock-infected MT-4 cells) [M] | IC50 (HIV; Human immunodeficiency virus 1, MT4, read-out: pIC50 (−log IC50), HIV-infected MT-4 cells (converted), dose achieving 50% protection, MTT, OD 540 nm) [nM] | melting point [°C] | pCC50 (−log CC50) (mock-infected MT-4 cells; mock-infected MT-4 cells, concentration reducing absorbance of control by 50%, MTT) [M] |
| --- | --- | --- | --- | --- | --- | --- |
| CCN(C)C(=O)/C=C/c1cc(C)c(Nc2ccnc(Nc3ccc(C#N)cc3)n2)c(C)c1 [Compound 158] | 8 | −2.5 | 5.5 | – | – | – |
| Cc1cc(CN(C)CCC#N)cc(C)c1Nc1ccnc(Nc2ccc(C#N)cc2)n1 [Compound 75] | 9.0 | −4.0 | 5.0 | – | – | – |
| Cc1cc(/C=C/C#N)ccc1Oc1ccnc(Nc2ccc(C#N)cc2)n1 [Compound 230] | 9.2 | <−5.2 | <4.0 | – | – | – |
| Cc1cc(/C=C(/C#N)C(=O)C(C)(C)C)cc(C)c1Nc1ccnc(Nc2ccc(C#N)cc2)n1 [Compound 106] | – | −2.5 | – | 20 | 193 | – |
| Cc1cc(/C=C/C#N)cc(Br)c1Nc1ccnc(Nc2ccc(C#N)cc2)n1 [Compound 248] | 9.3 | −3.5 | 5.7 | – | – | – |
| C/C(C#N)=C\c1cc(C)c(Oc2ccnc(Nc3ccc(C#N)cc3)n2)c(C)c1 [Compound 179] | 8.9 | <−4.9 | <4.0 | – | – | – |
| Cc1cc(CCC#N)ccc1Nc1ccnc(Nc2ccc(C#N)cc2)n1 [Compound 227] | 9.5 | <−5.5 | <4.0 | – | – | – |
| CC(C#N)=Cc1ccc(Nc2ccnc(Nc3ccc(C#N)cc3)n2)c(C)c1 [Compound 229] | 8.8 | <−4.8 | <4.0 | – | – | – |
| Cc1cc(CCC#N)ccc1Oc1ccnc(Nc2ccc(C#N)cc2)n1 [Compound 234] | 8.7 | <−4.7 | <4.0 | – | – | – |
| COc1cc(CCC#N)ccc1Nc1ccnc(Nc2ccc(C#N)cc2)n1 [Compound 251] | 8.9 | −3.9 | 5 | – | – | – |
| Cc1cc(C(=O)CC#N)cc(C)c1Nc1ccnc(Nc2ccc(C#N)cc2)n1 | – | – | – | – | 150 | – |
| Cc1cc(/C=C/C(=O)N(C)C)cc(C)c1Oc1ccnc(Nc2ccc(C#N)cc2)n1 [Compound 219] | 9.1 | −4.1 | 5 | – | – | – |
| Cc1cc(/C=C/C(=O)N(C)CCC#N)cc(C)c1Oc1ccnc(Nc2ccc(C#N)cc2)n1 [Compound 214] | 8.6 | −3.5 | 5.1 | – | – | – |
| Cc1cc(CC(C)C#N)ccc1Oc1ccnc(Nc2ccc(C#N)cc2)n1 (centres unmarked) [Compound 236] | 8.8 | <−4.8 | <4.0 | – | – | – |
| CC(C#N)=Cc1cc(C)c(Nc2ccnc(Nc3ccc(C#N)cc3)n2)c(Br)c1 [Compound 247] | 9.2 | −3 | 6.2 | – | – | – |
| CC(=CC#N)c1ccc(Oc2ccnc(Nc3ccc(C#N)cc3)n2)c(C)c1 [Compound 232] | 8.4 | <−4.4 | <4.0 | – | – | – |
| C/C(C#N)=C/c1cc(C)c(Nc2ccnc(Nc3ccc(C#N)cc3)n2)c(C)c1 [Compound 11] | 9.2 | −3.5 | 5.7 | – | – | – |
| C/C(C#N)=C/c1cc(C)c(Nc2ccnc(Nc3ccc(C#N)cc3)n2)c(C)c1 [Compound 151] | 9.1 | −3.6 | 5.5 | – | – | – |
| Cc1cc(/C=C/c2cccnc2)cc(C)c1Nc1ccnc(Nc2ccc(C#N)cc2)n1 | – | – | – | – | 120 | – |
| Cc1cc(/C=C\C#N)cc(C)c1Nc1ccnc(Nc2ccc(C#N)cc2)n1 [Compound 10] | – | −2.9 | 6.3 | – | – | – |
| Cc1cc(/C(=C/C#N)C(C)C)cc(C)c1Nc1ccnc(Nc2ccc(C#N)cc2)n1 [Compound 149] | 9.1 | −3.8 | 5.3 | – | – | – |
| CCCCN(C)C(=O)/C=C/c1cc(C)c(Oc2ccnc(Nc3ccc(C#N)cc3)n2)c(C)c1 | – | – | – | – | 212 | – |
| Cc1cc(C=C(Br)Br)cc(C)c1Nc1ccnc(Nc2ccc(C#N)cc2)n1 | – | – | – | – | 223 | – |
| CC(=NO)c1cc(C)c(Nc2ccnc(Nc3ccc(C#N)cc3)n2)c(C)c1 [Compound 45] | 8.7 | −3.8 | 5.0 | – | – | – |

| Compound | pIC50 (−log IC50) (HIV; [1]) | pSI (pCC50-pIC50) (HIV) | pCC50 (−log CC50) (mock-infected MT-4 cells) [M] | IC50 (HIV; Human immunodeficiency virus 1, MT4, read-out: pIC50 (−log IC50), HIV-infected MT-4 cells (converted), dose achieving 50% protection, MTT, OD 540 nm) [nM] | melting point [°C] | pCC50 (−log CC50) (mock-infected MT-4 cells; mock-infected MT-4 cells, concentration reducing absorbance of control by 50%, MTT) [M] |
| --- | --- | --- | --- | --- | --- | --- |
| Cc1cc(/C(=C\C#N)C(C)C)cc(C)c1Nc1ccnc(Nc2ccc(C#N)cc2)n1 [Compound 150] | 8.8 | −4.0 | 4.8 | – | – | – |
| Cc1cc(/C=C/C#N)cc(Cl)c1Nc1ccnc(Nc2ccc(C#N)cc2)n1 [Compound 133] | 9.2 | −5.2 | 4 | – | – | – |
| C/C(C#N)=C/c1cc(C)c(Oc2ccnc(Nc3ccc(C#N)cc3)n2)c(C)c1 [Compound 178] | 8.8 | −3.1 | 5.7 | – | – | – |
| COc1cc(/C=C/C#N)ccc1Nc1ccnc(Nc2ccc(C#N)cc2)n1 [Compound 245] | 8.8 | −4.8 | 4 | – | – | – |
| Cc1cc(CC(C#N)C#N)cc(C)c1Nc1ccnc(Nc2ccc(C#N)cc2)n1 [Compound 144] | 8.6 | −2.2 | 6.4 | – | – | – |
| C/C(=C\C#N)c1cc(C)c(Nc2ccnc(Nc3ccc(C#N)cc3)n2)c(C)c1 [Compound 84] | 9.0 | −4.5 | 4.5 | – | – | – |
| COc1cc(C=C(C)C#N)ccc1Nc1ccnc(Nc2ccc(C#N)cc2)n1 [Compound 249] | 8.5 | −4.5 | 4 | – | – | – |
| Cc1cc(CC(C)C#N)cc(C)c1Nc1ccnc(Nc2ccc(C#N)cc2)n1 (centres unmarked) [Compound 153] | 9.2 | −2.9 | 6.3 | – | – | – |
| C/C(C#N)=C/c1cc(C)c(Nc2ccnc(Nc3ccc(C#N)cc3)n2)c(C)c1 [Compound 152] | 9.1 | −4.3 | 4.8 | – | – | – |
| Cc1cc(C(C)CC#N)ccc1Oc1ccnc(Nc2ccc(C#N)cc2)n1 (centres unmarked) [Compound 235] | 9.3 | <−5.3 | <4.0 | – | – | – |
| Cc1cc(C=C(C#N)CC#N)cc(C)c1Nc1ccnc(Nc2ccc(C#N)cc2)n1 (mixture of isomers) [Compound 147] | 9.4 | −3.7 | 5.7 | – | – | – |
| CC(=CC#N)c1cc(C)c(Oc2ccnc(Nc3ccc(C#N)cc3)n2)c(C)c1 [Compound 213] | 9 | −4.2 | 4.8 | – | – | – |
| CC(C#N)=Cc1ccc(Oc2ccnc(Nc3ccc(C#N)cc3)n2)c(C)c1 [Compound 231] | 9.2 | <−5.2 | <4.0 | – | – | – |
| Cc1cc(CC#N)cc(Cl)c1Nc1ccnc(Nc2ccc(C#N)cc2)n1 [Compound 238] | 9.5 | −3.9 | 5.6 | – | – | – |
| CC(C#N)=Cc1cc(C)c(Nc2ccnc(Nc3ccc(C#N)cc3)n2)c(Cl)c1 [Compound 233] | 9.3 | −3.6 | 5.7 | – | – | – |
| Cc1cc(/C=C\Cl)cc(C)c1Nc1ccnc(Nc2ccc(C#N)cc2)n1 | – | – | – | – | 250 | – |
| Cc1cc(CN(C)C=NC#N)cc(C)c1Oc1ccnc(Nc2ccc(C#N)cc2)n1 [Compound 174] | 8.8 | −3.5 | 5.3 | – | – | – |
| Cc1cc(/C=C/C(=O)N(C)CC#N)cc(C)c1Oc1ccnc(Nc2ccc(C#N)cc2)n1 [Compound 212] | 9.1 | −4.1 | 5 | – | – | – |
| Cc1cc(/C=C/C#N)cc(-c2ccco2)c1Nc1ccnc(Nc2ccc(C#N)cc2)n1 [Compound 239] | 8.9 | −3.9 | 5 | – | – | – |
| Cc1cc(/C=C/c2cccnc2)cc(C)c1Nc1ccnc(Nc2ccc(C#N)cc2)n1 [Compound 146] | 8.4 | −3 | – | – | – | 5.4 |
| N#C/C=C/c1ccc(Nc2ccnc(Nc3ccc(C#N)cc3)n2)c(Br)c1 [Compound 244] | 9.2 | −5.2 | 4 | – | – | – |
| CCN(C)C(=O)/C=C/c1cc(C)c(Oc2ccnc(Nc3ccc(C#N)cc3)n2)c(C)c1 [Compound 215] | 9.1 | −3.6 | 5.5 | – | – | – |
| Cc1cc(/C=C/C#N)ccc1Nc1ccnc(Nc2ccc(C#N)cc2)n1 [Compound 237] | 8.9 | <−4.9 | <4.0 | – | – | – |
| Cc1ccc(N(C)C)c(C)c1Nc1ccnc(Nc2ccc(C#N)cc2)n1 | – | – | – | – | 132 | – |
